From publication PMC6273431, “The Structure–Antimicrobial Activity Relationships of a Promising Class of the Compounds Containing the N-Arylpiperazine Scaffold” (Molecules, 2016)
Read-outs that look alike come from different tables or passages of the source.

Tests used:
[1] = tested on: Mycobacterium avium subsp. paratuberculosis CIT03; test: antimycobacterial MIC, MB broth, alamarBlue; assay type: cell-based; details: 264 h, read-out: MIC MAP
Method: The Mycobacterium avium subsp. paratuberculosis CIT03 strain was grown in the Middlebrook (MB) broth, supplemented with the Oleic-Albumin-Dextrose-Catalase Supplement (OADC, Becton Dickinson, Oxford, UK) and the mycobactin J (2 μg/mL). The commercially available siderophore mycobactin J reduced the incubation period of M. avium subsp. paratuberculosis in a complex medium when compared to the medium containing the mycobactin P as a growth factor.
The identification of the isolate was performed using biochemical and molecular protocols. At a log phase growth, a culture sample (10 mL) was centrifuged at 15,000 rpm/20 min using a bench top centrifuge (Model CR 4-12, Jouan Inc., London, UK). Following removal of the supernatant, the pellet was washed in fresh Middlebrook 7H9GC broth and re-suspended in fresh supplemented MB broth (10 mL). The turbidity was adjusted to match the McFarland standard No. 1 containing approximately 3.0 × 10^8 Colony Forming Units (CFU) with the MB broth. Further 1:20 dilution of the culture was performed in the MB broth. The susceptibility of given mycobacterial species was investigated in a 96-well plate format. In those experiments, sterile deionised water (300 μL) was added to all outer-perimeter wells of the plates to minimize an evaporation of the medium in the test wells during the incubation process. Each evaluated compound (100 μL) was incubated with the mycobacterial species (100 μL). The dilutions of a particular compound were prepared in triplicate. For all inspected derivatives, final concentrations ranged from 1000 μg/mL to 60 μg/mL. All compounds were prepared in dimethyl sulfoxide (DMSO; Sigma-Aldrich, Irvine, UK) and subsequent dilutions were made in the supplemented MB broth. The plates were sealed with a parafilm and incubated at 37 °C for 11 days. Following the incubation, a 10% addition of a water‑soluble dye, the alamarBlue reagent (AbD Serotec, Kidlington, UK), was mixed into each well. Absorbance readings at 570 nm and 600 nm were taken, initially for background subtraction and after 24 h re-incubation. The subtraction is necessary for strongly coloured compounds, where the colour may interfere with the interpretation of any colour change. For non-interfering compounds, a blue colour in a well was interpreted as an absence of a growth and a pink colour was scored as a growth.
The minimum inhibitory concentration (MIC) was defined as the lowest concentration of the compound at which no visible bacterial growth was observed. In other words, the MIC was the lowest concentration that prevented a visual colour change from blue to pink. The MIC value has been routinely and widely used in bacterial assays and it has been a standard detection limit according to the Clinical and Laboratory Standards Institute. The clinically used antimycobacterial drugs INH and RIF were applied as the standards.

M. smegmatis ATCC 700084 = test: antimycobacterial MIC, broth dilution micromethod; assay type: cell-based; details: Mycolicibacterium smegmatis, ATCC700084, 72 h, 3 days at 37 °C
M. kansasii DSM 44162 = test: antimycobacterial MIC, broth dilution micromethod; assay type: cell-based; details: Mycobacterium kansasii, DSM44162, 168 h, 7 days at 37 °C
M. marinum CAMP 5644 = test: antimycobacterial MIC, broth dilution micromethod; assay type: cell-based; details: Mycobacterium marinum, CAMP5644, 504 h, 21 days at 28 °C
[2] = tested on: Enterococcus faecalis ATCC 29212; test: antibacterial MIC, microtitration broth method; assay type: cell-based; details: 37 °C
Method: (§1) Prior to the testing, each strain was transferred into a nutrient agar (Oxoid Limited, Basingstoke, UK), which was enriched with 5% defibrinated bovine blood.
(§2) The MICs were determined by the microtitration broth method in the cation-adjusted Mueller-Hinton broth (Becton Dickinson, Oxford, UK) according to an international interdisciplinary Clinical Laboratory Standard Institute guidelines.
(§3) The checkerboard was inoculated by the bacterial inocula, which were prepared in a phosphate buffered saline solution with the pH = 7.2–7.3 to simulate physiological pH. The final concentration of each inoculum in the final volume of 100 μL in the wells was approximately 7.5 × 10^6 CFU/mL. Drug-free controls, sterility controls and the controls consisted of the broth with DMSO were included. The determination of the results was performed visually after 24 h of static incubation in the darkness at 37 °C in an aerobic atmosphere.
(§4) To ensure reproducibility, each antibacterial MIC assay was performed triplicate on separate occasions.

[3] = tested on: Escherichia coli ATCC 25922; test: antibacterial MIC, microtitration broth method; assay type: cell-based; details: 37 °C
Method: as §1, §2, §3, §4

[4] = tested on: Staphylococcus aureus ATCC 29213; test: antibacterial MIC, microtitration broth method; assay type: cell-based; details: 37 °C
Method: as §1, §2, §3, §4

[5] = tested on: methicillin-resistant Staphylococcus aureus 63718; test: antibacterial MIC, microtitration broth method; assay type: cell-based; details: MRSA, 37 °C
Method: as §1, §2, §3, §4

[6] = tested on: Candida albicans CCM 8261; test: candidacidal MIC, microdilution method; assay type: cell-based; details: Candida albicans, CCM8261, 48 h, 37 °C
Method: (§5) In order to provide a look into the potential usefulness of the derivatives 5a–l as the candidates for a development of anti-yeast (candidacidal) agents, they were in vitro tested against Candida albicans CCM 8261 (CA 8261), C. krusei CCM 8271 (CK 8271) and C. parapsilosis CCM 8260 (CP 8260). The yeasts were obtained from the Czech Collection of Microorganisms (Masaryk University, Faculty of Science, Brno, Czech Republic). They were grown and kept on Sabouraud agar (Oxoid Limited, Basingstoke, UK).
(§6) For the screening, the microdilution method according to the Antimicrobial Susceptibility Testing Protocols was applied. The inoculum was prepared from the cultures grown on Sabouraud agar. With the sterile solution of NaCl, the inoculum was prepared to the 0.5 McFarland units using the Densi-La-Meter densitometer (LIAP, Riga, Latvia) and diluted a thousand‑fold with the Roswell Park Memorial Institute (RPMI) 1640 medium (Sigma-Aldrich, Darmstadt, Germany). Prepared suspension was used for an inoculation of microtitre plates. Final concentration in wells ranged from 5.0 × 10^2 CFU/mL to 2.5 × 10^3 CFU/mL. […] For the determination of the MICs, the stock solutions of all the tested compounds were diluted in the microtitre checkerboard to the final concentration varying from 128 μg/mL to 0.125 μg/mL. Drug-free control, sterility control and the control consisted of a medium and DMSO alone were included. Inoculated microtitre plates were incubated for 48 h in the darkness at 37 °C in an aerobic atmosphere. The results were estimated against static light.
(§7) The MIC was defined as the lowest concentration of the tested compound at which no visible growth was observed. To ensure reproducibility of the results, each candidacidal MIC assay was performed triplicate on separate occasions. It was important to note that all the MICs from the in vitro antimicrobial screening were expressed in μg/mL units and were available in Tables S3 and S4 (Supplementary Materials).

Candida krusei CCM 8271 = test: candidacidal MIC, microdilution method; assay type: cell-based; details: Pichia kudriavzevii, CCM8271, 48 h, 37 °C
Method: as §5, §6, §7

[7] = tested on: Candida parapsilosis CCM 8260; test: candidacidal MIC, microdilution method; assay type: cell-based; details: Lodderomyces parapsilosis, CCM8260, 48 h, 37 °C
Method: as §5, §6, §7

[8] = design: method as in PMID 16209439, PMID 16209439; details: potentiometric titration; cited from earlier work
[9] = design: method as in PMID 16209439, PMID 16209439, doi:10.2478/s11696-006-0007-y; details: octan-1-ol/phosphate buffer (pH = 7.4); cited from earlier work

Compound	MIC ([1]; 37 °C, 11 days) [µM]	MIC [1] [µg/mL]	MIC (M. smegmatis ATCC 700084) [µM]	MIC (M. smegmatis ATCC 700084; Table S3) [µg/mL]	MIC (M. kansasii DSM 44162) [µM]	MIC (M. kansasii DSM 44162; Table S3) [µg/mL]	MIC (M. marinum CAMP 5644) [µM]	MIC (M. marinum CAMP 5644; Table S3) [µg/mL]	MIC ([2]; ATCC29212, 24 h) [µM]	MIC ([2]; ATCC29212, Table S4, 24 h) [µg/mL]	MIC ([3]; ATCC25922, 24 h) [µM]	MIC ([3]; ATCC25922, Table S4, 24 h) [µg/mL]	MIC ([4]; ATCC29213, 24 h) [µM]	MIC ([4]; ATCC29213, Table S4, 24 h) [µg/mL]	MIC ([5]; 24 h) [µM]	MIC ([5]; Table S4, 24 h) [µg/mL]	MIC [6] [µM]	MIC ([6]; Table S4) [µg/mL]	MIC (Candida krusei CCM 8271) [µM]	MIC (Candida krusei CCM 8271; Table S4) [µg/mL]	also measured
CCOc1cccc(NC(=O)OCC(O)CN2CCN(c3cccc(C(F)(F)F)c3)CC2)c1.Cl (stereo not drawn) [Compound 5d, 1-[3-(3-ethoxyphenylcarbamoyl)oxy-2-hydroxypropyl]-4-(3-trifluoromethylphenyl)piperazin-1-ium chloride]	1980	1000	127	64	31.8	16	127	64	> 508	> 256	> 508	> 256	> 508	> 256	> 508	> 256	> 254	> 128	> 254	> 128	MIC [7]: > 254 µM; MIC ([7]; Table S4): > 128 µg/mL; pKa [8]: 5.35; log Pexp [9]: 3.72
COc1ccc(NC(=O)OCC(O)CN2CCN(c3cccc(C(F)(F)F)c3)CC2)cc1 (stereo not drawn) [Compound 5e, 1-{2-hydroxy-3-(4-methoxyphenylcarbamoyl)oxy)propyl}-4-(3-trifluoromethylphenyl)piperazin-1-ium chloride]	1020	500	523	256	65.3	32	65.3	32	> 523	> 256	> 523	> 256	> 523	> 256	> 523	> 256	> 261	> 128	> 261	> 128	MIC [7]: > 261 µM; MIC ([7]; Table S4): > 128 µg/mL; pKa [8]: 5.66; log Pexp [9]: 3.60
CCOc1ccc(NC(=O)OCC(O)CN2CCN(c3cccc(C(F)(F)F)c3)CC2)cc1 (stereo not drawn) [Compound 5f]	992	500	508	256	508	256	254	128	> 508	> 256	> 508	> 256	> 508	> 256	> 508	> 256	> 254	> 128	> 254	> 128	MIC [7]: > 254 µM; MIC ([7]; Table S4): > 128 µg/mL; pKa [8]: 5.69; log Pexp [9]: 3.71
COc1ccccc1NC(=O)OCC(O)CN1CCN(c2ccc(F)cc2)CC1 (stereo not drawn) [Compound 5g]	2270	1000	582	256	145	64	145	64	> 582	> 256	> 582	> 256	> 582	> 256	> 582	> 256	> 291	> 128	> 291	> 128	MIC [7]: > 291 µM; MIC ([7]; Table S4): > 128 µg/mL; pKa [8]: 6.73; log Pexp [9]: 3.61
CCOc1ccccc1NC(=O)OCC(O)CN1CCN(c2ccc(F)cc2)CC1 (stereo not drawn) [Compound 5h]	1100	500	564	256	282	128	282	128	> 564	> 256	> 564	> 256	> 564	> 256	> 564	> 256	> 282	> 128	> 282	> 128	MIC [7]: > 282 µM; MIC ([7]; Table S4): > 128 µg/mL; pKa [8]: 6.58; log Pexp [9]: 3.90
COc1cccc(NC(=O)OCC(O)CN2CCN(c3ccc(F)cc3)CC2)c1 (stereo not drawn) [Compound 5i]	1140	500	582	256	145	64	291	128	> 582	> 256	> 582	> 256	> 582	> 256	> 582	> 256	> 291	> 128	> 291	> 128	MIC [7]: > 291 µM; MIC ([7]; Table S4): > 128 µg/mL; pKa [8]: 6.55; log Pexp [9]: 3.25
